Data on two molecules can be found in US12201643B2, “Mechanochemical dynamic for focal cancer treatment” (THE BOARD OF TRUSTEES OF THE UNIVERSITY OF ILLINOIS, priority 2021, dated 2025).

The subject of data set [1] is B16F10 mouse skin melanoma cells. In kind it is cell-based. The text has this: (§1) B16F10 mouse skin melanoma cells were maintained in DMEM (Gibco) supplemented with 10% fetal bovine serum (FBS, Corning), penicillin and streptomycin (Thermo Fisher). B16F10 cells were a generous gift from Dr. Edward Roy at the University of Illinois at Urbana-Champaign. E0771 mouse breast cancer cells (CH3 BioSystems) were maintained in RPMI-1640 (Gibco) supplemented with 10% FBS (Corning), penicillin and streptomycin (Thermo Fisher). For free-radical challenge experiments, 0.05% trypsin dissociated cells were counted and 1×10^4 cells per well were seeded in cell culture-treated 6 well plates (Thermo Fisher) 24 hours before the start of the experiment. […] Cells were then incubated up to 72 hours without media change and counted every 24 hours. […] Staining solution was then replaced by PBS and the cells were imaged on an Olympus inverted fluorescence microscope with 4× objective and FITC filter set. […] Live cells positively stained by Calcein-AM were counted using FIJI (NIH) and averaged over 4 counting fields per well at each time point (FIG. 12). For each image, only the green channel was analyzed. […] Using “Analyze Particles,” the distinct white areas from size 20 (to exclude small artifacts and debris) to size infinity were counted. Cell counts were then compiled and analyzed in Microsoft Excel. […]

The test system of data set [2] is E0771 mouse breast cancer cells. In kind it is cell-based.
From the text: as §1

The conditions of data set [3]: Arrhenius equation; cited from earlier work.

Molecules are shown by their SMILES.

On to `OO` [H2O2, hydrogen peroxide], for which the “lethal dosage (positive control)” value is approximately 50 µM in data set [1] and approximately 30 µM in data set [2].
Take `CC(C#N)(CCC(=O)O)N=NC(C)(C#N)CCC(=O)O` (stereo not shown) [ACVA, 4,4′-azobis (4-cyanovaleric acid)]: in data set [3], the “activation energy Ea of azo group decomposition” value is 31.76 kcal/mol and the “pre-exponential factor A of azo group decomposition” value was 6.21e+15 s⁻¹.
